In patent publication US20090318396A1, “CORTICOSTEROID LINKED BETA-AGONIST COMPOUNDS FOR USE IN THERAPY” (priority 2008, published 2009):

How the values were obtained:
[1] = test system: airway epithelial cells cultured at an air-liquid interface; assay: Drug metabolism in airway epithelial cells cultured at an air-liquid interface; type: in vitro ADME, human
Description: Cryopreserved passage 1 cells were cultured in bronchial epithelial growth medium (Fulcher, M. L., et al., Well-differentiated human airway epithelial cell cultures. Methods Mol Med, 2005. 107: p. 183-206) on 100 mm Type I collagen-coated plastic dishes. At 70% confluence, passage 2 cells were transferred to type IV collagen-coated Millicell membranes (Millipore, Bedford, Mass.) in medium that supports growth at an air-liquid-interface (ALI) (Fulcher er al., 2005). Cells were maintained at an ALI and allowed to differentiate fully for approximately 28 days. […] Approximately 1 hour prior to the start of the experiment, the apical surfaces of the cells were washed once again with PBS and the basolateral media replaced with fresh ALI media. At time=0 hrs, the test article was diluted from a 10 mM stock solution in DMSO to a 40 μM solution in ALI media/PBS/10% EtOH/water (v/v). 50 μl of the resulting 40 μM solution was immediately added to the apical surface of the cells. 200 μl of the dosing solution was also added to 800 μl of 100% ACN and frozen immediately on dry ice. The remaining dosing solution was placed in the incubator with the cells. The dosing solution and cells were allowed to incubate for 10, 120 and 240 min at which points the apical surfaces of cells from 4 millicell cell culture inserts (n=4) were washed with 3×100 μl of PBS or 10% EtOH/water (v/v) per millicell. […]

[2] = test system: ovalbumin-induced lung inflammation; assay: Mouse ovalbumin model of lung inflammation; type: in vivo, Mice (Balb/c); conditions: mouse OVA
Description: Mice (Balb/c) were immunized by intraperitoneal injection of ovalbumin (10 μg OVA suspended in 2 mg aluminum hydroxide) on day 0 and 7. One group was sensitized and treated with vehicle (NSV). One group was immunized with sterile water only and treated with vehicle, e.g. to serve as a nonsensitized (negative) control (Vehicle). […] On days 14 and 15, the animals were exposed to OVA by inhalation (3 h; 5 mg/m^3). Forty eight hours following the last OVA challenge (day 17) mice were sacrificed. Bronchoalveolar lavage (BAL) was taken from each animal to collect cells and fluid. Cell numbers and differentials were calculated from BAL.

[3] = test system: tobacco-smoke-induced airway inflammation; assay: Tobacco smoke model of airway inflammation in mice; type: in vivo, female C3H mice; conditions: for IL-1α / MIP-1α / Neutrophils: mean ± s.e.m.
Description: Vehicle and test articles are delivered by intratracheal instillation in 10% ethanol water to animals anesthetized with 3-5% isoflurane (n=8 animals per test article group). All compounds will be delivered on a daily (5 days per week) schedule for 3 weeks during the smoke exposures. Mice were exposed to cigarette smoke for 6 hours per day, 5 days per week for 3 weeks, in H1000 or H2000 chambers. Type 2R4F research cigarettes (Kentucky Tobacco Research and Development Center) were used in the study. Total particulate material (TPM) exposure was kept at […] for the first week to allow animals to reduce adverse effects during adaptation to smoke exposure. TPM exposure was maintained between 100 and 250 mg TPM/m^3 during the remainder of the study. After 3 weeks, animals were euthanized and bronchoalveolar lavage fluid was obtained for cell differentials and cytokine analysis by Luminex multiplex immunoassay.

[4] = Drug levels in plasma, BALF and lung after IT administration in the rat; conditions: IT
Description: Compounds of Examples 52 and 83 were formulated for intratracheal (IT) dosing in 10% EtOH, 90% Sterile Water, and dosed in male Sprague-Dawley rats at 3 mg/kg (Example 52) and 1 mg/kg (Example 83). Each dosing group consisted of 3 male, naïve purebred Sprague-Dawley rats. At dosing, the animals weighed ˜0.30 kg. The animals were fasted overnight prior to dose administration and up to 2 hr after dosing. The compounds were administered IT using a Penn Century Microsprayer (Model 1A-1B).
Blood samples were collected at 0.5, 2, and 4 hours post-dose. Each blood sample (0.5-0.6 mL per sample) was collected via the orbital sinus (following anesthesia for BAL procedure) into tubes containing EDTA anti-coagulant into containers surrounded by dry ice at 0.5, 2 and 4 hr (mean, n=6). Blood samples were stored at −20±5° C. until shipped for analysis.
The animals were anesthetized with an intramuscular (IM) injection of a ketamine/xylazine/acepromazine (80/10/2 mg/kg) cocktail at a dose volume of 1.1 mL/kg. A cannula (modified Bard® infant feeding tube) was inserted into the trachea. Warmed sterile saline was injected into the lungs. The lungs were gently massaged by palpation of the chest for approximately 45 seconds. The fluid (BALF) was recovered and placed on ice. The procedure was repeated two more times, and all three BALF samples pooled. The fluid was centrifuged under refrigerated conditions at 350 g for 10 minutes. The supernatant and cell pellet were collected and stored at approximately −70° C. until shipped for analysis.
Immediately following each BAL procedure, the lungs from each animal were removed, blotted dry, weighed, and stored frozen at −70° C. until shipped for analysis.
An LC/MS/MS method was used to measure the concentration of compound in plasma.
Add 3×w/v of 1×PBS buffer (90:10-PBS:ACN) to each lung tissue. Homogenize the sample w/Polytron (PT1200) and take 50 uL of supernatant and inject to LC/MSMS.
An aliquot of 50 μL of each plasma sample was treated with 100 mL of acetonitrile (ACN) containing internal standard. After the protein precipitation, an aliquot of 100 μL of the supernatant was transferred to a clean 96-well plate and mixed with 100 μL of water. An aliquot of 30 μL of the above solution was injected to the TSQ Ultra Quantum LC/MS/MS system.
A HyPurity C18 HPLC column (30×2.1 mm, 5μ) from ThermoHypersil (Part #: 22105-032130) was used. Mobile phase A contained 1% acetonitrile in 10 mM ammonium formate aqueous solution with 1% formic acid. Mobile phase B contained 80% acetonitrile in 10 mM ammonium formate with 1% formic acid. An Agilent 1100 series binary pump (P/N G1312A Bin Pump) was used for elution and separation. HTS Pal autosampler from LEAP Technologies, Carrboro, N.C. was used.
TSQ Quantum Ultra triple quadrupole mass spectrometer from Thermo Finnigan, San Jose, Calif. was used in selective reaction monitoring (SRM) operation mode, Tune file:

[5] = 3.0 mg/kg IT, 1x/day day 14 and 15

CC[N+](CC)(CC(=O)OCC(=O)[C@@]12O[C@H](C3CCCCC3)O[C@@H]1C[C@H]1[C@@H]3CCC4=CC(=O)C=C[C@]4(C)[C@H]3[C@@H](O)C[C@@]12C)Cc1cc(C(O)CNCCCCCCOCCCCc2ccccc2)ccc1OP(=O)(O)O.[Cl-] (stereo partly drawn) [Example 52, [5-[1-hydroxy-2-[6-(4-phenylbutoxy)hexylamino]ethyl]-2-phosphonooxybenzyl]-(diethyl)-[[11β,16α]-[[15,16-((R)-cyclohexylmethylene)bis(oxy)]-11-hydroxypregna-1,4-diene-3,20-dion-21-yl]carbonylmethyl]ammonium chloride]
amount of the parent compound over time ([1]; apical and cellular compartments): decreased over time
amount of salmeterol and desciclesonide over time ([1]; cellular compartment): increased in the cellular compartment
Eosinophils in BAL, Mean ([2]; 0.6 mg/kg IT): 367580 mL⁻¹
Neutrophils in BAL, Mean ([2]; 0.6 mg/kg IT): 7270 mL⁻¹
Eosinophils in BAL, Mean ([2]; 1.0 mg/kg IT): 163320 mL⁻¹
Neutrophils in BAL, Mean ([2]; 1.0 mg/kg IT): 5340 mL⁻¹
Eosinophils in BAL, Mean [2, 5]: 57420 mL⁻¹
Neutrophils in BAL, Mean [2, 5]: 10370 mL⁻¹
IL-1α ([3]; 0.6 mg/kg i.t.): 2.54 ± 0.59 pg/mL
MIP-1α ([3]; 0.6 mg/kg i.t.): 4.34 ± 1.15 pg/mL
Neutrophils ([3]; 0.6 mg/kg i.t.): 7.7 ± 1.8 ×10^4/ml
IL-1α ([3]; 1.0 mg/kg i.t.): 2.74 ± 0.64 pg/mL
MIP-1α ([3]; 1.0 mg/kg i.t.): 7.0 ± 1.40 pg/mL
Neutrophils ([3]; 1.0 mg/kg i.t.): 8.5 ± 1.3 ×10^4/ml
Inhibition of tobacco-smoke-induced IL-1α and MIP-1α production ([3]; p<0.05 versus vehicle control at 1.0 and 0.6 mg/kg doses, 20-plex Luminex assay): exhibited inhibition
Metabolism in the lung following IT administration [4]: metabolized to Salmeterol and Desisobutyryl Ciclesonide in the lung
